Data on 31 compounds can be found in BindingDB's records for doi:10.7270/Q23F4N3R (Burnham Center For Chemical Genomics, 2011).

Structures are written as SMILES. Counter-ions that a name gives are not always drawn.

A short description of one test: hexokinase 1 inhibition, dose response, selectivity assay for HKDC1 inhibitor project, biochemical (AID 504763).
Conditions: not given
Broadly, the IC50 is the concentration needed to halve the response being measured. High values mean weaker potency, low ones greater potency. `CN(C)Cc1cc(O)c(CN(C)C)cc1O` [2,5-bis[(dimethylamino)methyl]benzene-1,4-diol] registered an IC50 of more than 80 µM.
In turn, `Cc1ccc(-n2c3nc(=O)[nH]c(=O)c-3cc3cc([N+](=O)[O-])ccc32)cc1` [10-(4-methylphenyl)-7-nitropyrimido[4,5-b]quinoline-2,4-dione] displayed an IC50 of 19.4 µM.
The same measure, in the same setting: under `O=C(O)CSc1cc(NS(=O)(=O)c2ccc(Cl)cc2)c2ccccc2c1O` [2-[4-[(4-chlorophenyl)sulfonylamino]-1-hydroxynaphthalen-2-yl]sulfanylacetic acid] stands 16.7 µM; under `C=CCN1C=C2C(=O)C(C)(OC(=O)CCC(=O)OC)C(=O)C(Br)=C2C=C1c1ccc(OC)cc1` (stereo unspecified), more than 80 µM.
Same read-out and setting: under `CC(OC(=O)c1cc(O)c2ccccc2c1O)C(=O)Nc1ccc(C(N)=O)cc1` (stereo unspecified) [[1-[(4-aminocarbonylphenyl)amino]-1-oxidanylidene-propan-2-yl] 1,4-bis(oxidanyl)naphthalene-2-carboxylate] stands more than 80 µM; under `Cc1ccc(S(=O)(=O)N=C2C=C(Nc3cccc(C(=O)O)c3)C(=O)c3ccccc32)c(C)c1` [3-[[(4E)-4-(2,4-dimethylphenyl)sulfonylimino-1-oxo-2-naphthalenyl]amino]benzoic acid], 11 µM.
On the same count and under the same terms, for `CNCc1ccccc1Sc1cc(O)ccc1O` [(Z)-2-butenedioic acid;2-[[2-(methylaminomethyl)phenyl]thio]benzene-1,4-diol] the value was 4.58 µM; for `N=C(NCc1ccc2c(c1)OCO2)NC(=O)c1ccccc1` [SMR000293067], more than 80 µM; for `CCOc1ccc(-n2c(C)cc(C(=O)CCl)c2C)cc1` [2-chloranyl-1-[1-(4-ethoxyphenyl)-2,5-dimethyl-pyrrol-3-yl]ethanone], more than 80 µM.
Take `COc1ccc2[nH]c3c4c(ccc3c2c1)C(=O)C=CC4=O` [8-methoxy-11H-benzo[a]carbazole-1,4-dione]: the concentration for half-maximal inhibition (IC50) is more than 80 µM.
Compound `COc1cc(/C=C2\SC(c3ccc(C)cc3)=NC2=O)ccc1O` [MLS000579809] showed an IC50 of more than 80 µM.
Still for that read-out and setting: for `CCN(CC)CCCNC(=O)c1c(O)c2ccccc2n(Cc2ccccc2)c1=O` [N-[3-(diethylamino)propyl]-2-oxidanyl-4-oxidanylidene-1-(phenylmethyl)quinoline-3-carboxamide;hydrochloride] the value was more than 80 µM; for `Cc1[nH]c2ccccc2c1C1=CC(=O)C=CC1=O`, 9.71 µM.
The same measure, in the same setting: for `O=Cc1[nH]c2ccccc2c1N(C(=O)CCl)c1ccccc1` [MLS001029456] the value was more than 80 µM.
Still for that read-out and setting: under `CC(C)(C)c1c(Cl)c(O)c(-c2ccccc2)c(=O)n1-c1ccccc1` [2-tert-butyl-3-chloranyl-6-oxidanyl-1,5-diphenyl-pyridin-4-one] stands more than 80 µM.
The compound `NC1=C(Br)C(=O)c2ncccc2C1=O` gave an IC50 of 13.8 µM.
Regarding `O=C(/C=C/c1ccco1)NCC(=O)NNC1=c2ccccc2=NC1=O` [MLS001075666], the 50% inhibitory concentration (IC50) is more than 80 µM.
On the same count and under the same terms, under `NC(=O)C1CCN(C2=C(Cl)C(=O)c3ccccc3C2=O)CC1` [SMR000180199] stands more than 80 µM; under `CCCCC[C@H](O)/C=C/[C@@H]1[C@@H](C/C=C\CCCC(=O)OC)[C@@H](O)C[C@H]1O` [MLS000028823], more than 80 µM; under `O=C(O)c1ccccc1-c1c2cc(I)c(=O)c(I)c-2oc2c(I)c(O)c(I)cc12` [sodium;2-(2,4,5,7-tetraiodo-3-oxido-6-oxo-9-xanthenyl)benzoate], 47.2 µM.
On the same count and under the same terms, for `O=C(O)[C@@H](c1ccccc1)N1Cc2ccccc2C1=O` the value was more than 80 µM; for `CC(=O)N(C1=C(Cl)C(=O)c2ccccc2C1=O)C1CCCCC1`, 10.2 µM; for `O=C(O)c1ccc(N=Cc2c(O)ccc3ccccc23)cc1` [MLS001205050], 70.8 µM.
Same read-out and setting: under `Cc1[nH]c2c(=O)c3c(c(=O)c=2[nH]c1C)C1C=CC3CC1` [MLS002701599] stands 2.08 µM; under `Cc1cccc(-n2c3nc(=O)[nH]c(=O)c-3cc3cc([N+](=O)[O-])ccc32)c1`, more than 80 µM; under `Nc1c(Br)cc2c3c(cccc13)-c1ccccc1-2` [MLS002694423], 9.59 µM.
Regarding `COC(=O)C1CN(C#N)N(c2ccc(Cl)cc2)C12c1ccccc1-c1ccccc12` (stereo unspecified) [2'-(4-chlorophenyl)-1'-cyano-4'-spiro[fluorene-9,3'-pyrazolidine]carboxylic acid methyl ester], the IC50 was more than 80 µM.

Still in this test, the particulars now being: inactive by the depositor's call.
Take `CCOC(=O)C1=C(Cc2ccc(Cl)cc2)C(=O)c2ccccc2C1=O` [ethyl 3-[(4-chlorophenyl)methyl]-1,4-bis(oxidanylidene)naphthalene-2-carboxylate]: it took 22.2 µM to reach half-maximal inhibition (IC50).
In turn, `Cc1cc(C)n2nc(SCc3nnc(SCc4ccccc4Cl)s3)nc2n1` displayed an IC50 of 23.2 µM.
Still for that read-out and setting: under `CCN(CC)c1ccc2c(c1)oc(=O)c1c(Cl)cc(=O)oc12` [4-chloranyl-8-(diethylamino)pyrano[3,2-c]chromene-2,5-dione] stands 55.4 µM; under `Cc1ccc(S(=O)(=O)Nc2c(O)ccc3ccccc23)cc1` [4-methyl-N-(2-oxidanylnaphthalen-1-yl)benzenesulfonamide], 27.4 µM.
